From PMC5339874, “Fluorene-9-bisphenol is anti-oestrogenic and may cause adverse pregnancy outcomes in mice” (Nature Communications, 2017)

Tested on: human choriocarcinoma JEG-3 cells
Assay: WST-1 cell proliferation assay (cytotoxicity)
Format: cell-based
Settings: from 1.0 × 10^−6 M to lower concentrations; 24 h
Description: Dual-luciferase reporter assays were carried out primarily according to the method described in a previous study. In short, full-length sequences of human oestrogen receptor α and β were amplified by RT-PCR using mRNA from MCF-7 (Supplementary Table 3), and inserted into a pSVSPORT1 (Invitrogen); the resulting constructs were termed pSVhERα and pSVhERβ. A reporter plasmid containing ERE was constructed by inserting four tandem repeats of an ERE of Xenopus laevis vitellogenin A2 into a pGL4.23 vector (Promega), and was termed pGL4-ERE-luc. All of the plasmids constructed were confirmed by sequence analysis. […] The assays were performed in quadruplicate, and the results were expressed as the fold induction of the control after normalization against Renilla luciferase activity. Sigmoidal dose-effect curves were calculated using the GraphPad Prism 4 software. The IC50 values were calculated on the basis of the sigmoidal dose-effect curves. […] After another 24 h, 20 μl of 5 mM WST-1 with 0.2 mM 1-Methoxy-5-methylphenazinium methylsulfate was added for 4 h before the absorbance at 490 nm was measured with a microplate reader (iMark, BioRad). […]
Cell viability was determined using the cell proliferation reagent WST-1 (DOJINDO, Mashiki, Japan). […]
1-Methoxy-5-methylphenazinium methylsulfate was added for four hours before the absorbance at 490 nm was measured with a microplate reader (iMark, BioRad). […]

`Oc1ccc(C2(c3ccc(O)cc3)c3ccccc3-c3ccccc32)cc1` [BHPF, 9,9-bis(4-hydroxyphenyl)-fluorene] was tested, and the cytotoxicity was “no obvious cytotoxicity”.
